Columns and labels:
barnyardgrass [1] = assay: Test A preemergence; type: in vivo, Echinochloa crusgalli; conditions: visual injury after 10 days, 0 to 100 scale, 0 is no effect, 100 is complete control
Description: (§1) Seeds of plant species selected from barnyardgrass (Echinochloa crusgalli), blackgrass (Alopecurus myosuroides), corn (Zea mays), foxtail, giant (giant foxtail, Setaria faberi), goosegrass (Eleusine indica), kochia (Bassia scoparia), oat, wild (wild oat, Avena fatua), pigweed, palmer (palmer amaranth, palmer pigweed, Amaranthus palmeri), Pigweed, Redroot (redroot pigweed, Amaranthus retroflexus), ragweed (common ragweed, Ambrosia artemisiifolia), ryegrass, Italian (italian ryegrass, Lolium multiflorum), soybean (Glycine max), and wheat (Triticum aestivum) were planted into a blend of loam soil and sand and treated preemergence with a directed soil spray using test chemicals formulated in a non-phytotoxic solvent mixture which included a surfactant. At the same time, plants selected from these crops and weed species and also galium (catchweed bedstraw, Galium aparine) and horseweed (Erigeron canadensis) were planted in pots containing the same blend of loam soil and sand and treated with postemergence applications of test chemicals formulated in the same manner. Plants ranged in height from 2 to 10 cm and were in the one- to two-leaf stage for the postemergence treatment. Treated plants and untreated controls were maintained in a greenhouse for 10 days, after which time all treated plants were compared to untreated controls and visually evaluated for injury. Plant response ratings, summarized in Table A, are based on a 0 to 100 scale where 0 is no effect and 100 is complete control. A dash (-) response means no test result.

blackgrass [2] = assay: Test A preemergence; type: in vivo, Alopecurus myosuroides; conditions: visual injury after 10 days, 0 to 100 scale, 0 is no effect, 100 is complete control
Procedure, shortened: (§2)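 Visual injury ratings on a 0–100 scale (100 = complete control) versus untreated controls, taken 10 days after treatment in greenhouse. Preemergence: directed soil spray onto seeded loam/sand. Postemergence: foliar application at one- to two-leaf stage, plants 2–10 cm. Formulation: non-phytotoxic solvent plus surfactant.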

corn [3] = assay: Test A preemergence; type: in vivo, Zea mays; conditions: visual injury after 10 days, 0 to 100 scale, 0 is no effect, 100 is complete control
Procedure, shortened: as §2

foxtail, giant [4] = assay: Test A preemergence; type: in vivo, Setaria faberi; conditions: visual injury after 10 days, 0 to 100 scale, 0 is no effect, 100 is complete control
Procedure, shortened: as §2

kochia [5] = assay: Test A preemergence; type: in vivo, Bassia scoparia; conditions: visual injury after 10 days, 0 to 100 scale, 0 is no effect, 100 is complete control
Procedure, shortened: as §2

oat, wild [6] = assay: Test A preemergence; type: in vivo, Avena fatua; conditions: visual injury after 10 days, 0 to 100 scale, 0 is no effect, 100 is complete control
Procedure, shortened: as §2

pigweed, palmer [7] = assay: Test A preemergence; type: in vivo, Amaranthus palmeri; conditions: visual injury after 10 days, 0 to 100 scale, 0 is no effect, 100 is complete control
Procedure, shortened: as §2

ragweed [8] = assay: Test A preemergence; type: in vivo, Ambrosia artemisiifolia; conditions: visual injury after 10 days, 0 to 100 scale, 0 is no effect, 100 is complete control
Procedure, shortened: as §2

ryegrass, Italian [9] = assay: Test A preemergence; type: in vivo, Lolium multiflorum; conditions: visual injury after 10 days, 0 to 100 scale, 0 is no effect, 100 is complete control
Procedure, shortened: as §2

soybean [10] = assay: Test A preemergence; type: in vivo, Glycine max; conditions: visual injury after 10 days, 0 to 100 scale, 0 is no effect, 100 is complete control
Procedure, shortened: as §2

wheat [11] = assay: Test A preemergence; type: in vivo, Triticum aestivum; conditions: visual injury after 10 days, 0 to 100 scale, 0 is no effect, 100 is complete control
Procedure, shortened: as §2

barnyardgrass [12] = assay: Test A postemergence; type: in vivo, Echinochloa crusgalli; conditions: postemergence, 10 days
Description: as §1

blackgrass [13] = assay: Test A postemergence; type: in vivo, Alopecurus myosuroides; conditions: postemergence, 10 days
Procedure, shortened: as §2

corn [14] = assay: Test A postemergence; type: in vivo, Zea mays; conditions: postemergence, 10 days
Procedure, shortened: as §2

foxtail, giant [15] = assay: Test A postemergence; type: in vivo, Setaria faberi; conditions: postemergence, 10 days
Procedure, shortened: as §2

kochia [16] = assay: Test A postemergence; type: in vivo, Bassia scoparia; conditions: postemergence, 10 days
Procedure, shortened: as §2

oat, wild [17] = assay: Test A postemergence; type: in vivo, Avena fatua; conditions: postemergence, 10 days
Procedure, shortened: as §2

pigweed, palmer [18] = assay: Test A postemergence; type: in vivo, Amaranthus palmeri; conditions: postemergence, 10 days
Procedure, shortened: as §2

ragweed [19] = assay: Test A postemergence; type: in vivo, Ambrosia artemisiifolia; conditions: postemergence, 10 days
Procedure, shortened: as §2

ryegrass, Italian [20] = assay: Test A postemergence; type: in vivo, Lolium multiflorum; conditions: postemergence, 10 days
Procedure, shortened: as §2

soybean [21] = assay: Test A postemergence; type: in vivo, Glycine max; conditions: postemergence, 10 days
Procedure, shortened: as §2

wheat [22] = assay: Test A postemergence; type: in vivo, Triticum aestivum; conditions: postemergence, 10 days
Procedure, shortened: as §2

galium = assay: Test A postemergence; type: in vivo, Galium aparine; conditions: postemergence, 10 days
Procedure, shortened: as §2

horseweed = assay: Test A postemergence; type: in vivo, Erigeron canadensis; conditions: postemergence, 10 days
Procedure, shortened: as §2

[23] = 125 g ai/ha, 0 to 100 scale, 0 no effect, 100 complete control
[24] = 500 g ai/ha, visual injury, 0 to 100 scale (0 no effect, 100 complete control)

Cc1cccc2c1O[C@@H](C)CN2C(=O)c1cccc(-n2cnc(COC(C)C)n2)c1 [Compound 135] was tested, and the “Plant response rating, Barnyardgrass” value (barnyardgrass [1]; 125 g ai/ha) was 30, the “Plant response rating, Barnyardgrass” value (barnyardgrass [1]; 500 g ai/ha) was 70 and the “Plant response rating, Blackgrass” value (blackgrass [2]; 125 g ai/ha) was 60. For the same compound, the “Plant response rating, Blackgrass” value (blackgrass [2]; 500 g ai/ha) was 80, the “Plant response rating, Corn” value (corn [3]; 125 g ai/ha) was 0 and the “Plant response rating, Corn” value (corn [3]; 500 g ai/ha) was 10. The “Plant response rating, Foxtail, Giant” value (foxtail, giant [4]; 125 g ai/ha) was 10, the “Plant response rating, Foxtail, Giant” value (foxtail, giant [4]; 500 g ai/ha) was 100 and the “Plant response rating, Kochia” value (kochia [5]; 125 g ai/ha) was 0. For the same compound, the “Plant response rating, Kochia” value (kochia [5]; 500 g ai/ha) was 0, the “Plant response rating, Oat, Wild” value (oat, wild [6]; 125 g ai/ha) was 60 and the “Plant response rating, Oat, Wild” value (oat, wild [6]; 500 g ai/ha) was 90. The “Plant response rating, Pigweed, Palmer” value (pigweed, palmer [7]; 125 g ai/ha) was 10, the “Plant response rating, Pigweed, Palmer” value (pigweed, palmer [7]; 500 g ai/ha) was 30 and the “Plant response rating, Ragweed” value (ragweed [8]; 125 g ai/ha) was 0. The “Plant response rating, Ragweed” value (ragweed [8]; 500 g ai/ha) was 0, the “Plant response rating, Ryegrass, Italian” value (ryegrass, Italian [9]; 125 g ai/ha) was 60 and the “Plant response rating, Ryegrass, Italian” value (ryegrass, Italian [9]; 500 g ai/ha) was 90. For the same compound, the “Plant response rating, Soybean” value (soybean [10]; 125 g ai/ha) was 20, the “Plant response rating, Soybean” value (soybean [10]; 500 g ai/ha) was 30 and the “Plant response rating, Wheat” value (wheat [11]; 125 g ai/ha) was 0. The “Plant response rating, Wheat” value (wheat [11]; 500 g ai/ha) was 30, the “Barnyardgrass plant response rating” value (barnyardgrass [12]; [23]) was 0 and the “Plant response rating, Barnyardgrass” value (barnyardgrass [12]; [24]) was 10. For the same compound, the “Blackgrass plant response rating” value (blackgrass [13]; [23]) was 0, the “Plant response rating, Blackgrass” value (blackgrass [13]; [24]) was 70 and the “Corn plant response rating” value (corn [14]; [23]) was 10. For the same compound, the “Plant response rating, Corn” value (corn [14]; [24]) was 60, the “Foxtail, Giant plant response rating” value (foxtail, giant [15]; [23]) was 10 and the “Plant response rating, Foxtail, Giant” value (foxtail, giant [15]; [24]) was 90. The “Kochia plant response rating” value (kochia [16]; [23]) was 0, the “Plant response rating, Kochia” value (kochia [16]; [24]) was 50 and the “Oat, Wild plant response rating” value (oat, wild [17]; [23]) was 0. For the same compound, the “Plant response rating, Oat, Wild” value (oat, wild [17]; [24]) was 20, the “Pigweed, Palmer plant response rating” value (pigweed, palmer [18]; [23]) was 10 and the “Plant response rating, Pigweed, Palmer” value (pigweed, palmer [18]; [24]) was 20. The “Ragweed plant response rating” value (ragweed [19]; [23]) was 0, the “Plant response rating, Ragweed” value (ragweed [19]; [24]) was 30 and the “Ryegrass, Italian plant response rating” value (ryegrass, Italian [20]; [23]) was 0. The “Plant response rating, Ryegrass, Italian” value (ryegrass, Italian [20]; [24]) was 50, the “Soybean plant response rating” value (soybean [21]; [23]) was 90 and the “Plant response rating, Soybean” value (soybean [21]; [24]) was 100. The “Wheat plant response rating” value (wheat [22]; [23]) was 10, the “Plant response rating, Wheat” value (wheat [22]; [24]) was 50 and the “Galium plant response rating” value (galium; [23]) was 50. For the same compound, the “Plant response rating, Galium” value (galium; [24]) was 80, the “Horseweed plant response rating” value (horseweed; [23]) was 0 and the “Plant response rating, Horseweed” value (horseweed; [24]) was 0.
